According to PubChem BioAssay AID248 (DTP/NCI, 2004):
Values joined by “and” are separate entries in the source; they are usually repeats but may differ in a detail not shown here. Identical values can stand only once. Inconclusive results and toxic doses are left out.

Test system: L1210 leukemia ip in BDF1 mice, survival T/C
Experiment: NCI In Vivo Anticancer Drug Screen. Data for tumor model L1210 Leukemia (intraperitoneal) in B6D2F1 (BDF1) mice
Details: endpoint: mean survival time, higher = longer survival
Outline: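 Mice bearing the transplanted tumor received compound or vehicle. Survival of the treated group was divided by that of the vehicle-treated control group to give the ratio.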

Structure (SMILES): O=C(Nc1ccc(C2=NCCCN2)cc1)c1ccc(C(=O)Nc2ccc(C3=NCCCN3)cc2)cc1
- T/C (dose: 0.5 mg/kg/injection, schedule: Q01DX Z (ip), vehicle: carboxymethylcellulose (CMC)): 95 % of control
- T/C (dose: 0.5 mg/kg/injection, schedule: Q01DX Z (iv), vehicle: saline): 100 % of control
- T/C (dose: 0.8 mg/kg/injection, schedule: Q01DX Z (ip), vehicle: carboxymethylcellulose (CMC)): 101 % of control
- T/C (dose: 1.0 mg/kg/injection, schedule: Q01DX010 (ip), vehicle: other): 160 % of control
- T/C (dose: 1.0 mg/kg/injection, schedule: Q01DX010 (iv), vehicle: other): 103 % of control
- T/C (dose: 1.0 mg/kg/injection, schedule: Q01DX Z (iv), vehicle: saline): 107 % of control
- T/C (dose: 1.2 mg/kg/injection, schedule: Q01DX Z (ip), vehicle: carboxymethylcellulose (CMC)): 103 % of control
- T/C (dose: 1.9 mg/kg/injection, schedule: Q01DX Z (ip), vehicle: carboxymethylcellulose (CMC)): 109 % of control and 211 % of control
- T/C (dose: 2.0 mg/kg/injection, schedule: Q01DX010 (ip), vehicle: other): 174 % of control and 235 % of control
- T/C (dose: 2.0 mg/kg/injection, schedule: Q01DX010 (ip), vehicle: saline): 155 % of control
- T/C (dose: 2.0 mg/kg/injection, schedule: Q01DX010 (iv), vehicle: other): 180 % of control
- T/C (dose: 2.0 mg/kg/injection, schedule: Q01DX Z (iv), vehicle: saline): 111 % of control
- T/C (dose: 2.8 mg/kg/injection, schedule: Q01DX Z (ip), vehicle: carboxymethylcellulose (CMC)): 277 % of control
- T/C (dose: 4.0 mg/kg/injection, schedule: Q01DX010 (ip), vehicle: other): 205 % of control and 217 % of control and 265 % of control
- T/C (dose: 4.0 mg/kg/injection, schedule: Q01DX010 (ip), vehicle: saline): 208 % of control and 235 % of control
- T/C (dose: 4.0 mg/kg/injection, schedule: Q01DX010 (iv), vehicle: other): 237 % of control
- T/C (dose: 4.0 mg/kg/injection, schedule: Q01DX010 (iv), vehicle: saline): 203 % of control
- T/C (dose: 4.0 mg/kg/injection, schedule: Q01DX Z (iv), vehicle: other): 202 % of control
- T/C (dose: 4.0 mg/kg/injection, schedule: Q01DX Z (iv), vehicle: saline): 238 % of control
- T/C (dose: 4.2 mg/kg/injection, schedule: Q01DX Z (ip), vehicle: carboxymethylcellulose (CMC)): 280 % of control
- T/C (dose: 6.3 mg/kg/injection, schedule: Q01DX Z (ip), vehicle: carboxymethylcellulose (CMC)): 209 % of control and 229 % of control
- T/C (dose: 8.0 mg/kg/injection, schedule: Q01DX010 (ip), vehicle: other): 97 % of control and 115 % of control
- T/C (dose: 8.0 mg/kg/injection, schedule: Q01DX010 (ip), vehicle: saline): 229 % of control and 338 % of control
- T/C (dose: 8.0 mg/kg/injection, schedule: Q01DX010 (iv), vehicle: saline): 161 % of control
- T/C (dose: 8.0 mg/kg/injection, schedule: Q01DX Z (iv), vehicle: saline): 182 % of control
- T/C (dose: 9.4 mg/kg/injection, schedule: Q01DX Z (ip), vehicle: carboxymethylcellulose (CMC)): 211 % of control
- T/C (dose: 16.0 mg/kg/injection, schedule: Q01DX010 (ip), vehicle: other): 103 % of control and 89 % of control
- T/C (dose: 16.0 mg/kg/injection, schedule: Q01DX010 (iv), vehicle: saline): 117 % of control
- T/C (dose: 16.0 mg/kg/injection, schedule: Q01DX010 (sc), vehicle: olive oil, sesame oil, peanut oil): 113 % of control
- T/C (dose: 21.3 mg/kg/injection, schedule: Q01DX Z (ip), vehicle: carboxymethylcellulose (CMC)): 119 % of control
- T/C (dose: 22.0 mg/kg/injection, schedule: Q01DX010 (sc), vehicle: olive oil, sesame oil, peanut oil): 101 % of control
- T/C (dose: 30.0 mg/kg/injection, schedule: Q01DX Z (oral), vehicle: carboxymethylcellulose (CMC)): 95 % of control
- T/C (dose: 31.3 mg/kg/injection, schedule: Q01DX010 (sc), vehicle: olive oil, sesame oil, peanut oil): 119 % of control and 89 % of control
- T/C (dose: 31.3 mg/kg/injection, schedule: Q02DX004 (im), vehicle: olive oil, sesame oil, peanut oil): 116 % of control and 124 % of control
- T/C (dose: 32.0 mg/kg/injection, schedule: Q01DX Z (ip), vehicle: carboxymethylcellulose (CMC)): 123 % of control
- T/C (dose: 44.0 mg/kg/injection, schedule: Q01DX Z (sc), vehicle: saline): 109 % of control
- T/C (dose: 48.0 mg/kg/injection, schedule: Q01DX Z (ip), vehicle: carboxymethylcellulose (CMC)): 94 % of control
- T/C (dose: 60.0 mg/kg/injection, schedule: Q01DX Z (oral), vehicle: carboxymethylcellulose (CMC)): 91 % of control
- T/C (dose: 62.5 mg/kg/injection, schedule: Q01DX001 (im), vehicle: steriod suspending solution): 106 % of control
- T/C (dose: 62.5 mg/kg/injection, schedule: Q01DX010 (oral), vehicle: other): 111 % of control
- T/C (dose: 62.5 mg/kg/injection, schedule: Q02DX004 (im), vehicle: olive oil, sesame oil, peanut oil): 100 % of control and 107 % of control
- T/C (dose: 66.0 mg/kg/injection, schedule: Q01DX Z (sc), vehicle: saline): 102 % of control
- T/C (dose: 72.0 mg/kg/injection, schedule: Q01DX Z (ip), vehicle: carboxymethylcellulose (CMC)): 100 % of control
- T/C (dose: 88.5 mg/kg/injection, schedule: Q#A X Z (oral), vehicle: saline): 115 % of control
- T/C (dose: 100.0 mg/kg/injection, schedule: Q01DX Z (sc), vehicle: saline): 105 % of control
- T/C (dose: 120.0 mg/kg/injection, schedule: Q01DX Z (oral), vehicle: carboxymethylcellulose (CMC)): 91 % of control
- T/C (dose: 125.0 mg/kg/injection, schedule: Q01DX001 (im), vehicle: steriod suspending solution): 108 % of control
- T/C (dose: 125.0 mg/kg/injection, schedule: Q02DX004 (im), vehicle: olive oil, sesame oil, peanut oil): 98 % of control and 105 % of control
- T/C (dose: 150.0 mg/kg/injection, schedule: Q01DX Z (sc), vehicle: saline): 98 % of control and 103 % of control
- T/C (dose: 177.0 mg/kg/injection, schedule: Q01DX Z (oral), vehicle: saline): 109 % of control
- T/C (dose: 200.0 mg/kg/injection, schedule: Q#A X Z (oral), vehicle: saline): 161 % of control
- T/C (dose: 250.0 mg/kg/injection, schedule: Q01DX001 (im), vehicle: steriod suspending solution): 93 % of control
- T/C (dose: 250.0 mg/kg/injection, schedule: Q01DX010 (oral), vehicle: other): 183 % of control
- T/C (dose: 250.0 mg/kg/injection, schedule: Q02DX004 (im), vehicle: olive oil, sesame oil, peanut oil): 100 % of control and 104 % of control
- T/C (dose: 300.0 mg/kg/injection, schedule: Q01DX Z (sc), vehicle: saline): 105 % of control
- T/C (dose: 333.0 mg/kg/injection, schedule: Q## X010 (oral), vehicle: saline): 153 % of control
- T/C (dose: 400.0 mg/kg/injection, schedule: Q01DX Z (oral), vehicle: saline): 158 % of control
- T/C (dose: 500.0 mg/kg/injection, schedule: Q01DX010 (oral), vehicle: other): 181 % of control
- T/C (dose: 500.0 mg/kg/injection, schedule: Q## X010 (oral), vehicle: saline): 121 % of control
- T/C (dose: 531.0 mg/kg/injection, schedule: Q03DX Z (oral), vehicle: saline): 105 % of control
- T/C (dose: 600.0 mg/kg/injection, schedule: Q01DX Z (oral), vehicle: saline): 151 % of control and 163 % of control
- T/C (dose: 798.0 mg/kg/injection, schedule: Q03DX Z (oral), vehicle: saline): 107 % of control
- T/C (dose: 900.0 mg/kg/injection, schedule: Q01DX Z (oral), vehicle: saline): 124 % of control
- T/C (dose: 1200.0 mg/kg/injection, schedule: Q03DX Z (oral), vehicle: saline): 98 % of control
- T/C (dose: 1239.0 mg/kg/injection, schedule: Q07DX Z (oral), vehicle: saline): 102 % of control
- T/C (dose: 1800.0 mg/kg/injection, schedule: Q03DX Z (oral), vehicle: saline): 111 % of control
- T/C (dose: 1862.0 mg/kg/injection, schedule: Q07DX Z (oral), vehicle: saline): 105 % of control
- T/C (dose: 2700.0 mg/kg/injection, schedule: Q03DX Z (oral), vehicle: saline): 121 % of control
- T/C (dose: 2800.0 mg/kg/injection, schedule: Q07DX Z (oral), vehicle: saline): 101 % of control
- T/C (dose: 4200.0 mg/kg/injection, schedule: Q07DX Z (oral), vehicle: saline): 105 % of control

Structure (SMILES): COC(=O)C1CC(OC(C)=O)C(C(N)=O)C1 (stereo unspecified)
- T/C (dose: 100.0 mg/kg/injection, schedule: Q01DX009 (ip), vehicle: saline): 101 % of control
- T/C (dose: 200.0 mg/kg/injection, schedule: Q01DX009 (ip), vehicle: saline): 111 % of control
- T/C (dose: 400.0 mg/kg/injection, schedule: Q01DX009 (ip), vehicle: saline): 101 % of control

Structure (SMILES): COc1ccc(OC)c(/C=N\NC(=O)c2ccccc2N(C)C)c1
- T/C (dose: 100.0 mg/kg/injection, schedule: Q04DX002 (ip), vehicle: gum acacia): 100 % of control
- T/C (dose: 200.0 mg/kg/injection, schedule: Q04DX002 (ip), vehicle: gum acacia): 90 % of control
- T/C (dose: 400.0 mg/kg/injection, schedule: Q04DX002 (ip), vehicle: gum acacia): 103 % of control

Structure (SMILES): O=C1CC2=CCCCc3cccc1c32
- T/C (dose: 100.0 mg/kg/injection, schedule: Q01DX001 (ip), vehicle: carboxymethylcellulose (CMC)): 93 % of control
- T/C (dose: 200.0 mg/kg/injection, schedule: Q01DX001 (ip), vehicle: carboxymethylcellulose (CMC)): 93 % of control
- T/C (dose: 400.0 mg/kg/injection, schedule: Q01DX001 (ip), vehicle: carboxymethylcellulose (CMC)): 93 % of control

Structure (SMILES): COC1CCN(CCCn2c3ccccc3c3ccc(C(C)=O)cc32)CC1
- T/C (dose: 100.0 mg/kg/injection, schedule: Q01DX001 (ip), vehicle: saline): 97 % of control
- T/C (dose: 200.0 mg/kg/injection, schedule: Q01DX001 (ip), vehicle: saline): 105 % of control
